These results are taken from patent US10750742B2, “Pesticidally active pyrazole derivatives” (SYNGENTA PARTICIPATIONS AG, priority 2015, dated 2020).

Each structure is given as a SMILES string. Some results are limits rather than exact numbers.

The subject of data set [1] is Thrips tabaci. The data set can be described thus: Comparison: insecticidal activity against Thrips tabaci, sunflower leaf discs. The conditions noted are these: 6 days after infestation. In kind it is in vivo. The method, then:
(§1) Biological Comparison Data:
(§2) Compound A and B are disclosed in WO2014/122083 as example (Ic-1) (p. 76) and (lc-2) (p. 82, Table 3). The activities of compounds A and B to treat different pests are compared with the activities of compound 4, 6, 15 and 35 according to the present invention. The tests are carried out at different concentrations (ppm).
b) Insecticidal Activity Against Thrips tabaci (Onion Thrips):
(§3) Sunflower leaf discs were placed on agar in 24-well microtiter plates and sprayed with aqueous test solutions prepared from 10′000 ppm DMSO stock solutions. After drying the leaf discs were infested with a thrips population of mixed ages. The samples were assessed for mortality 6 days after infestation.

Data set [2] concerns Spodoptera littoralis. The data set can be described thus: Comparison: insecticidal activity against Spodoptera littoralis, larvicide L-3, feeding/contact, soybean plants. The conditions noted are these: 120 h. In kind it is in vivo. The method, then: as §1, §2
a) Insecticidal Activity Against Spodoptera littoralis (Egyptian Cotton Leaf Worm, Larvicide L-3, Feeding/Contact)
Soybean plants were sprayed with diluted test solutions in an application chamber. The plants (2 replicates) were infested with 10 L3 larvae 1 day after treatment. Samples were checked 5 days after infestation for mortality, feeding behavior, and growth regulation.

In data set [3] the test system is Spodoptera littoralis. The experiment in a line: Spodoptera littoralis (Egyptian cotton leaf worm), cotton leaf disc spray test. It is filed as in vivo. The conditions noted are these: foliar, 72 h, read-out: control (at least one of mortality, anti-feedant effect, growth inhibition). The procedure, abridged:
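Cotton leaf discs on agar were sprayed with aqueous dilutions of 10′000 ppm DMSO stocks, dried and infested with five L1 larvae. Mortality, anti-feedant effect and growth inhibition were scored against untreated samples 3 days after infestation. Control = any of these higher than untreated.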

Data set [4] concerns Myzus persicae. The data set can be described thus: Myzus persicae (green peach aphid), sucrose solution / Parafilm test. It is filed as in vivo. Particulars: 120 h. The procedure, abridged:
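Compound mixed into sucrose solution at 12.5 ppm under stretched Parafilm; aphid-infested pea seedlings set on the membrane and plate inverted so insects feed through it. Mortality assessed 5 days after infestation.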

The subject of data set [5] is Plutella xylostella. The experiment in a line: Plutella xylostella (diamond back moth), artificial diet test. It is filed as in vivo. Particulars: 120 h, read-out: control (mortality and growth inhibition). The method, then: Plutella xylostella (Diamond Back Moth):
24-well microtiter plates with artificial diet were treated with aqueous test solutions prepared from 10′000 ppm DMSO stock solutions by pipetting. After drying, the plates were infested with L2 larvae (10 to 15 per well). The samples were assessed for mortality and growth inhibition in comparison to untreated samples 5 days after infestation.

The test system of data set [6] is Tetranychus urticae. The experiment in a line: Tetranychus urticae (two-spotted spider mite), bean leaf disc test. In kind it is in vivo. The conditions noted are these: foliar, 192 h, read-out: control (mortality on mixed population, mobile stages). The method, then: Tetranychus urticae (Two-Spotted Spider Mite):
Bean leaf discs on agar in 24-well microtiter plates were sprayed with aqueous test solutions prepared from 10′000 ppm DMSO stock solutions. After drying the leaf discs were infested with a mite population of mixed ages. The samples were assessed for mortality on mixed population (mobile stages) 8 days after infestation.

The test system of data set [7] is Diabrotica balteata. The experiment in a line: Diabrotica balteata (corn root worm), maize sprout test. It is filed as in vivo. The conditions noted are these: 96 h, read-out: control (mortality and growth inhibition). The method, then: Diabrotica balteata, (Corn Root Worm)
Maize sprouts, placed on an agar layer in 24-well microtiter plates were treated with aqueous test solutions prepared from 10′000 ppm DMSO stock solutions by spraying. After drying, the plates were infested with L2 larvae (6 to 10 per well). The samples were assessed for mortality and growth inhibition in comparison to untreated samples 4 days after infestation.

Data set [8] concerns Thrips tabaci. The experiment in a line: Thrips tabaci (onion thrips), sunflower leaf disc test. In kind it is in vivo. The conditions noted are these: foliar, 144 h, read-out: control (mortality). The method, then:
Thrips tabaci (Onion Thrips):
as §3

In data set [9] the test system is Euschistus heros. The data set can be described thus: Euschistus heros (neotropical brown stink bug), soybean leaf test. It is filed as in vivo. The conditions noted are these: 120 h, read-out: effect in at least one of the two categories (mortality or growth inhibition). The method, then: Euschistus heros (Neotropical Brown Stink Bug):
Soybean leaves on agar in 24-well microtiter plates were sprayed with aqueous test solutions prepared from 10′000 ppm DMSO stock solutions. After drying the leaves were infested with N2 nymphs. The samples were assessed for mortality and growth inhibition in comparison to untreated samples 5 days after infestation.

Data set [10] concerns Myzus persicae. The experiment in a line: Myzus persicae (green peach aphid), sunflower leaf disc spray test. In kind it is in vivo. The conditions noted are these: foliar, 144 h.

Turning to `Cn1nc(OC(F)(F)C(F)C(F)(F)F)c(C(F)(F)F)c1-n1cc(-c2cccc(C(=O)NC3(C#N)CC3)c2F)cn1` (centres unmarked), the melting point (commonly the temperature of the solid-liquid transition) is 59 to 61 °C.

As to `CN1N=C(OC(F)(F)C(F)C(F)(F)F)C(C(F)(F)F)C1n1cc(-c2cc(F)c(Cl)c(C(=O)NC3CC3)c2)cn1` (centres unmarked), the melting point fell in the range of 114 to 116 °C.

In turn, `CN1N=C(OC(F)(F)C(F)C(F)(F)F)C(C(F)(F)F)C1n1cc(-c2cc(F)c(Cl)c(C(=O)NC3(C#N)CC3)c2)cn1` (centres unmarked) yielded a melting point of 82 to 84 °C.

Regarding `Cn1nc(OC(F)(F)C(F)C(F)(F)F)c(C(F)(F)F)c1-n1cc(-c2cc(C(=O)NC3CC3)c(Cl)cc2F)cn1` (centres unmarked), the melting point is 68 to 70 °C.

Regarding `Cn1nc(OC(F)(F)C(F)C(F)(F)F)c(C(F)(F)F)c1-n1cc(-c2cc(Cl)c(Cl)c(C(=O)NC3CC3)c2)cn1` (centres unmarked), the melting point fell in the range of 67 to 70 °C.

With `Cn1nc(OC(F)(F)C(F)C(F)(F)F)c(C(F)(F)F)c1-n1cc(-c2cc(Cl)c(Cl)c(C(=O)NC3(C#N)CC3)c2)cn1` (centres unmarked), the melting point was 162 to 165 °C.

With `Cn1nc(C(F)(F)C(F)(F)F)c(C(F)(F)F)c1-n1cc(-c2ccc(Cl)c(C(=O)NC3(C#N)CC3)c2)cn1` [B, reference compound], in data set [1] (12.5 ppm), the “Mortality (%)” value worked out at 100%. Further, in data set [1] (Thrips tabaci, foliar, 144 h, 0.05 ppm), the mortality (as a rule, the percentage killed) at 0.05 ppm came to 0%. The mortality at 0.2 ppm in [1] (Thrips tabaci, foliar, 144 h, 0.2 ppm) worked out at 25%; in data set [2], 20%. In data set [1] (Thrips tabaci, foliar, 144 h, 0.781 ppm), this compound gave a mortality at 0.781 ppm of 0%. Further, the mortality at 0.8 ppm in [1] (Thrips tabaci, foliar, 144 h, 0.8 ppm) worked out at 90%; in data set [2] it was 75%. The mortality at 3 ppm in data set [1] (Thrips tabaci, foliar, 144 h, 3 ppm) came to 100%; in data set [2], 100%. Further, in data set [1] (Thrips tabaci, foliar, 144 h, 3.12 ppm), the mortality at 3.12 ppm came to 25%. Moreover, the mortality at 12.5 ppm in data set [1] (Thrips tabaci, foliar, 144 h, 12.5 ppm) turned out to be 90%; in [2] it was 100%. Further, in data set [1] (Thrips tabaci, foliar, 144 h, 50 ppm), the mortality at 50 ppm was found to be 100%. This compound also gave a mortality at 200 ppm in data set [1] (Thrips tabaci, foliar, 144 h, 200 ppm) of 100%.

Consider `Cn1nc(OC(F)(F)C(F)(F)C(F)(F)F)c(C(F)(F)F)c1-n1cc(-c2ccc(Cl)c(C(=O)NC3(C#N)CC3)c2)cn1` [compound 35], for which the mortality at 200 ppm in data set [3], in [5], in data set [6], in data set [7], in [8] and in [10] was no less than 80% throughout. Moreover, the mortality at 12 ppm in data set [4] was no less than 80%. The same compound registered a mortality at 0.2 ppm in data set [2] of 0%. For the same compound, the mortality at 0.8 ppm in data set [2] amounted to 100%. Further, the mortality at 3 ppm in data set [2] was 100%. The mortality at 12.5 ppm in data set [2] was 100%. For the same compound, the percent control (mortality or growth inhibition) at 200 ppm in data set [9] is no less than 80%.
